ChEMBL document CHEMBL4270557, “Discovery of potent anti-convulsant carbonic anhydrase inhibitors: Design, synthesis, in vitro and in vivo appraisal” (Eur J Med Chem, 2018)

Assays:
Rattus norvegicus [1] = test: Sub-acute toxicity in Wistar rat assessed as eosinophils level at 100 mg/kg, po administered daily for 14 days (reference value: 2 +/- 1.4%); format: organism-based; settings: in vivo, 336 h
Rattus norvegicus [2] = test: Sub-acute toxicity in Wistar rat assessed as SGPT level at 100 mg/kg, po administered daily for 14 days (reference value: 58.8 +/- 18.8 U/L); format: organism-based; settings: in vivo, 336 h
Carbonic anhydrase 1 = Carbonic anhydrase 1 (Homo sapiens, UniProt P00915); test: Inhibition of human recombinant carbonic anhydrase 1 assessed as CO2 hydration preincubated for 15 mins prior to testing measured for 10 to 100 secs by phenol red dye-based stopped-flow assay
Carbonic anhydrase 1, sequence (P00915 whole entry): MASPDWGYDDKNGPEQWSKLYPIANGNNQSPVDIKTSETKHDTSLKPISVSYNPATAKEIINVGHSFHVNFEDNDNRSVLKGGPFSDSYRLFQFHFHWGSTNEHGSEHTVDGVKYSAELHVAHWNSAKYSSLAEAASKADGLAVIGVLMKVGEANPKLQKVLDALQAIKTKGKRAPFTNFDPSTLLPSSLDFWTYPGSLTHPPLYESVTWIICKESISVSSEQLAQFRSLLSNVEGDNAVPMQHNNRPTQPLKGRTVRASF

Rattus norvegicus [3] = test: Sub-acute toxicity in Wistar rat assessed as Na+ level at 100 mg/kg, po administered daily for 14 days (reference value: 143.8 +/- 2.3 mEq/L); format: organism-based; settings: in vivo, 336 h
Mus musculus [4] = test: Anticonvulsant activity in Swiss albino mouse assessed as protection against maximal electroshock-induced seizures at 30 mg/kg, ip administered 3 hrs prior to 50 mA current induction relative to control; format: functional
Mus musculus [5] = test: Anticonvulsant activity in Swiss albino mouse assessed as protection against maximal electroshock-induced seizures at 100 mg/kg, ip administered 0.5 hrs prior to 50 mA current induction relative to control
Carbonic anhydrase 2 = Carbonic anhydrase 2 (Homo sapiens, UniProt P00918); test: Inhibition of human recombinant carbonic anhydrase 2 assessed as CO2 hydration preincubated for 15 mins prior to testing measured for 10 to 100 secs by phenol red dye-based stopped-flow assay
Rattus norvegicus [6] = test: Anticonvulsant activity in Wistar rat assessed as protection against maximal electroshock-induced seizures at 30 mg/kg, po administered 0.25 hrs prior to 150 mA current induction relative to control; format: functional
Rattus norvegicus [7] = test: Sub-acute toxicity in Wistar rat assessed as basophils level at 100 mg/kg, po administered daily for 14 days (reference value: 0.16 +/- 0.4%); format: organism-based; settings: in vivo, 336 h
Rattus norvegicus [8] = test: Sub-acute toxicity in Wistar rat assessed as total bilirubin level at 100 mg/kg, po administered daily for 14 days (reference value: 0.37 +/- 0.11 mg/dl); format: organism-based; settings: in vivo, 336 h
Rattus norvegicus [9] = test: Sub-acute toxicity in Wistar rat assessed as phosphorus level at 100 mg/kg, po administered daily for 14 days (reference value: 6.71 +/- 1 mg/dl); format: organism-based; settings: in vivo, 336 h
Rattus norvegicus [10] = test: Anticonvulsant activity in Wistar rat assessed as protection against maximal electroshock-induced seizures at 30 mg/kg, po administered 2 hrs prior to 150 mA current induction relative to control; format: functional
Rattus norvegicus [11] = test: Sub-acute toxicity in Wistar rat assessed as total protein level at 100 mg/kg, po administered daily for 14 days (reference value: […]); format: organism-based; settings: in vivo, 336 h
Rattus norvegicus [12] = test: Sub-acute toxicity in Wistar rat assessed as mortality at 100 mg/kg, po administered daily for 14 days; format: organism-based; settings: in vivo, 336 h
Rattus norvegicus [13] = test: Sub-acute toxicity in Wistar rat assessed as change in behavior at 100 mg/kg, po administered daily for 14 days; format: organism-based; settings: in vivo, 336 h
Rattus norvegicus [14] = test: Sub-acute toxicity in Wistar rat assessed as hemoglobin level at 100 mg/kg, po administered daily for 14 days (reference value: 13.1 +/- 0.9 g/dl); settings: in vivo, 336 h
Rattus norvegicus [15] = test: Sub-acute toxicity in Wistar rat assessed as effect on water intake at 100 mg/kg, po administered daily for 14 days; format: organism-based; settings: in vivo, 336 h
Homo sapiens [16] = species: Homo sapiens; test: Selectivity ratio of Ki for human recombinant carbonic anhydrase 1 to Ki for human recombinant carbonic anhydrase 7
Mus musculus [17] = test: Anticonvulsant activity in Swiss albino mouse assessed as protection against maximal electroshock-induced seizures at 100 mg/kg, ip administered 3 hrs prior to 50 mA current induction relative to control
Rattus norvegicus [18] = test: Sub-acute toxicity in Wistar rat assessed as SGOT level at 100 mg/kg, po administered daily for 14 days (reference value: 69.9 +/- 7.7 U/L); format: organism-based; settings: in vivo, 336 h
Mus musculus [19] = test: Anticonvulsant activity in Swiss albino mouse assessed as protection against maximal electroshock-induced seizures at 30 mg/kg, ip administered 0.5 hrs prior to 50 mA current induction relative to control; format: functional
Carbonic anhydrase 7 = Carbonic anhydrase 7 (Homo sapiens, UniProt P43166); test: Inhibition of human recombinant carbonic anhydrase 7 assessed as CO2 hydration preincubated for 15 mins prior to testing measured for 10 to 100 secs by phenol red dye-based stopped-flow assay
Carbonic anhydrase 7, sequence (P43166 whole entry): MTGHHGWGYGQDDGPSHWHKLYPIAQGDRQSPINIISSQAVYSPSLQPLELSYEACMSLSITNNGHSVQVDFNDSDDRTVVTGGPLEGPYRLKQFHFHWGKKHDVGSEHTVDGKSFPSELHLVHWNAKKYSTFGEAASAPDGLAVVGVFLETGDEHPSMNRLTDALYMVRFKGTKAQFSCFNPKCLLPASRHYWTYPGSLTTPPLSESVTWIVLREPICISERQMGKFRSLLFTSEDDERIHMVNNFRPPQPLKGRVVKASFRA

Mus musculus [20] = test: Anticonvulsant activity in Swiss albino mouse assessed as protection against maximal electroshock-induced seizures at 100 mg/kg, ip administered 0.5 hrs prior to 50 mA current induction relative to control; format: functional
Rattus norvegicus [21] = test: Sub-acute toxicity in Wistar rat assessed as blood urea level at 100 mg/kg, po administered daily for 14 days (reference value: 40.7 +/- 3.3 mg/dl); format: organism-based; settings: in vivo, 336 h
Rattus norvegicus [22] = test: Anticonvulsant activity in Wistar rat assessed as protection against maximal electroshock-induced seizures at 30 mg/kg, po administered 1 hr prior to 150 mA current induction relative to control; format: functional
Mus musculus [23] = test: Anticonvulsant activity in Swiss albino mouse assessed as protection against maximal electroshock-induced seizures at 30 mg/kg, ip administered 6 hrs prior to 50 mA current induction relative to control; format: functional
Rattus norvegicus [24] = test: Sub-acute toxicity in Wistar rat assessed as neutrophils level at 100 mg/kg, po administered daily for 14 days (reference value: 23.4 +/- 2.9%); format: organism-based; settings: in vivo, 336 h
Homo sapiens [25] = species: Homo sapiens; test: Selectivity ratio of Ki for human recombinant carbonic anhydrase 2 to Ki for human recombinant carbonic anhydrase 7
Mus musculus [26] = test: Anticonvulsant activity in Swiss albino mouse assessed as protection against subcutaneous PTZ-induced seizures at 30 mg/kg, ip administered 0.5 hrs prior to PTZ-induction relative to control; format: functional
Rattus norvegicus [27] = test: Sub-acute toxicity in Wistar rat assessed as RBC level at 100 mg/kg, po administered daily for 14 days (reference value: 7.9 +/- 0.56 million/mm3); format: organism-based; settings: in vivo, 336 h
Mus musculus [28] = test: Anticonvulsant activity in Swiss albino mouse assessed as protection against maximal electroshock-induced seizures at 100 mg/kg, ip administered 3 hrs prior to 50 mA current induction relative to control; format: functional
Mus musculus [29] = test: Anticonvulsant activity in Swiss albino mouse assessed as protection against maximal electroshock-induced seizures at 30 mg/kg, ip administered 2 hrs prior to 50 mA current induction relative to control; format: functional
Rattus norvegicus [30] = test: Sub-acute toxicity in Wistar rat assessed as K+ level at 100 mg/kg, po administered daily for 14 days (reference value: 4.79 +/- 0.45 mEq/L); format: organism-based; settings: in vivo, 336 h
Rattus norvegicus [31] = test: Sub-acute toxicity in Wistar rat assessed as calcium level at 100 mg/kg, po administered daily for 14 days (reference value: 10.5 +/- 1.5 mg/dl); format: organism-based; settings: in vivo, 336 h
Rattus norvegicus [32] = test: Sub-acute toxicity in Wistar rat assessed as platelet level at 100 mg/kg, po administered daily for 14 days (reference value: 760.8 +/- 179.9 10^3/mm3); format: organism-based; settings: in vivo, 336 h

Cc1ccc(N2CCN(c3ccc(/C=N/NC(=O)c4ccc(S(N)(=O)=O)cc4)cc3)CC2)c(C)c1
Activity (Rattus norvegicus [1]): 2.6%
Activity (Rattus norvegicus [2]): 60.3 U/L
Ki (Carbonic anhydrase 1): > 10 µM
Activity (Rattus norvegicus [3]): 142.5 mEq/L
Activity (Mus musculus [4]): 70%
Activity (Mus musculus [5]): 50%
Ki (Carbonic anhydrase 2): 9.39 µM
Activity (Rattus norvegicus [6]): 17%
Activity (Rattus norvegicus [7]): 0.33%
Activity (Rattus norvegicus [8]): 0.35 mg/dL
Activity (Rattus norvegicus [9]): 6.48 mg/dL
Activity (Rattus norvegicus [10]): 67%
Activity (Rattus norvegicus [11]): 6.62 g/dL
Activity (Rattus norvegicus [12]): Non-Toxic
Activity (Rattus norvegicus [13]): Non-Toxic
Activity (Rattus norvegicus [14]): 12.2 g/dL
Activity (Rattus norvegicus [15]): Non-Toxic
Ratio Ki (Homo sapiens [16]): 561
Activity (Mus musculus [17]): 50%
Activity (Rattus norvegicus [18]): 65 U/L
Activity (Mus musculus [19]): 67 - 70%
Ki (Carbonic anhydrase 7): 0.0178 µM
Activity (Mus musculus [20]): 50%
Activity (Rattus norvegicus [21]): 39.6 mg/dL
Activity (Rattus norvegicus [22]): 84%
Activity (Mus musculus [23]): 60%
Activity (Rattus norvegicus [24]): 23.1%
Ratio Ki (Homo sapiens [25]): 527
Activity (Mus musculus [26]): 50%
Activity (Rattus norvegicus [27]): 7.2 million/mm3
Activity (Mus musculus [28]): 50%
Activity (Mus musculus [29]): 60%
Activity (Rattus norvegicus [30]): 4.83 mEq/L
Activity (Rattus norvegicus [31]): 10 mg/dL
Activity (Rattus norvegicus [32]): 622.3 ×10³ /mm3
